Data as given in paper PMC8954547, “Nonpeptidic Z360-Analogs Tagged with Trivalent Radiometals as Anti-CCK2R Cancer Theranostic Agents: A Preclinical Study” (Pharmaceutics, 2022).

Key:
[1] = system: HEK293-CCK2i4svR and wtHEK293 xenografts; assay: SPECT/CT of HEK293-CCK2i4svR and wtHEK293 xenografts; type: in vivo, mice; conditions: 4 h and 24 h pi
Procedure: For SPECT/CT imaging, six mice bearing twin HEK293-CCK2i4svR and wtHEK293 tumors were injected in the tail vein with a bolus containing [^111In]In-GAS1/2/3 (100 μL, 9–12 MBq associated with 3 nmol total injected analog in-vehicle: saline/EtOH 9/1 v/v). Mice were euthanized at 4 h and 24 h pi. Tomographic SPECT/CT imaging was performed with the y-CUBE/x-CUBE systems (Molecubes, Belgium). The SPECT system is based on monolithic NaI detectors attached to SiPMs, with a 0.6 mm intrinsic resolution. The CT system is based on a structured CMOS detector of CsI with pixels of 75 µm and operates between 35–80 kVp, 10–500 µA tube current, with a 33 µm fixed focal spot size. SPECT scans were acquired 4 h pi and 24 h pi, with a 40–50 min duration protocol based on the injected activity, and each SPECT scan was succeeded by a CT scan, following General-Purpose protocol under 50 kVp, for co-registration purposes. SPECT images were reconstructed using the MLEM reconstruction method with a 250 µm voxel size and 500 iterations. CT images were reconstructed using the ISRA reconstruction method with a 100 µm voxel size.
Images were exported and post-processed on VivoQuant software, version 4.0 (Invicro, Boston). A smoothing median filter (0.6 mm, spherical window) was applied to the images, and the bladder was removed for consistency purposes. Normalization of images was performed (i.e., all images having the same color scale range values) to achieve a direct visual comparison between the different groups.

[2] = system: SCID mice bearing twin HEK293-CCK2i4svR and wtHEK293 tumors; assay: Biodistribution in SCID mice bearing twin HEK293-CCK2i4svR and wtHEK293 xenografts; type: in vivo
Summary of the method: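 Uptake is expressed as %IA/g (mean ± SD, n = 4) from gamma counting of blood, organs and tumours collected at set times: 1, 4 and 24 h pi for ^67Ga, 4 and 24 h for ^111In (±gelofusine), 4–96 h for ^177Lu. Radioligands were given iv at 7–40 pmol to SCID mice bearing twin CCK2i4svR-transfected and wild-type HEK293 xenografts.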

HEK293-CCK2i4svR cells = assay: Radioligand uptake and internalization in HEK293-CCK2i4svR cells; type: cell-based, human
Procedure: A day before the experiment, HEK293-CCK2i4svR cells were seeded in six-well plates. The next day, cells were rinsed with ice-cold internalization medium (IM: DMEM Glutamax-I, supplemented by 1% (v/v) FBS) and then the fresh medium was added (1.2 mL) at 37 °C. A further portion of IM (150 µL) was added in the upper well-row, and DG2 solution in IM (150 µL) was added in the lower row (to a final concentration of 1 μM; non-specific series). Each of the test radioligands, [^67Ga]Ga/[^111In]In/[^177Lu]Lu-GAS1/3 and [^67Ga]Ga/[^111In]In-GAS2, was finally added (250 fmol total conjugates in 150 μL 0.5% BSA-PBS) in all the wells and the plates were incubated at for 1 h at 37 °C in an Incubator-Orbital Shaker unit (MPM Instr. SrI, Bernareggio, MI, Italy); [^111In]In-GAS1/2/3 were incubated for 15 min, 30 min, 1 h and 2 h. At the predetermined time points, the plates were placed on ice, the medium was collected, and the plates were rinsed with 0.5% BSA-PBS (1 mL). Cells were subsequently treated with an acid-wash solution (2 × 600 µL; 50 mM glycine buffer pH 2.8, 0.1 M NaCl) and the fractions collected (membrane-bound). After briefly washing with 0.5% BSA-PBS (1 mL), the cells were lysed with 1 N NaOH (2 × 600 µL), and the fractions were collected (internalized). The radioactivity content of collected fractions was counted in the gamma counter, and the percentage of internalized and membrane-bound fractions per time point were calculated with Microsoft Excel. Specific internalized and membrane-bound counts were determined by subtracting the respective non-specific (in the presence of 1 μM DG2) from the respective total counts. Results represent specific internalized/membrane bound ± SD of total added radioactivity per well from three experiments performed in triplicate.

CC(C)(C)C(=O)CN1C(=O)[C@H](NC(=O)Nc2cccc(C(=O)NCCOCCOCCOCCNC(=O)[C@@H](CCC(=O)O)NC(=O)CCC(C(=O)O)N3CCN(CC(=O)[O-])CCN(CC(=O)[O-])CCN(CC(=O)[O-])CC3)c2)CN(C2CCCCC2)c2ccccc21.[111In+3] (stereo partly shown) [[^111In]In-GAS3]
SPECT/CT uptake in CCK2i4svR expressing tumors [1]: Intense uptake | SPECT/CT uptake in wtHEK293 tumors devoid of CCK2i4svR expression [1]: no uptake is evident | Biodistribution, Blood ([2]; 4 h pi): 2.42 ± 0.94 %IA/g | Biodistribution, CCK2i4svR(+) Tumor ([2]; 4 h pi): 19.83 ± 1.35 %IA/g | Biodistribution, CCK2i4svR(-) Tumor ([2]; 4 h pi): 0.85 ± 0.37 %IA/g | Biodistribution, Femur ([2]; 4 h pi): 0.60 ± 0.14 %IA/g | Biodistribution, Heart ([2]; 4 h pi): 0.81 ± 0.28 %IA/g | Biodistribution, Intestines ([2]; 4 h pi): 1.66 ± 0.33 %IA/g | Biodistribution, Kidneys ([2]; 4 h pi): 9.32 ± 0.68 %IA/g | Biodistribution, Liver ([2]; 4 h pi): 2.78 ± 0.27 %IA/g | Biodistribution, Lungs ([2]; 4 h pi): 1.36 ± 0.37 %IA/g | Biodistribution, Muscle ([2]; 4 h pi): 0.31 ± 0.13 %IA/g | Biodistribution, Pancreas ([2]; 4 h pi): 0.86 ± 0.23 %IA/g | Biodistribution, Spleen ([2]; 4 h pi): 0.69 ± 0.12 %IA/g | Biodistribution, Stomach ([2]; 4 h pi): 0.91 ± 0.39 %IA/g | Biodistribution, Blood ([2]; 24 h pi): 0.08 ± 0.01 %IA/g | Biodistribution, CCK2i4svR(+) Tumor ([2]; 24 h pi): 11.53 ± 1.93 %IA/g | Biodistribution, CCK2i4svR(-) Tumor ([2]; 24 h pi): 0.40 ± 0.21 %IA/g | Biodistribution, Femur ([2]; 24 h pi): 0.27 ± 0.09 %IA/g | Biodistribution, Heart ([2]; 24 h pi): 0.16 ± 0.02 %IA/g | Biodistribution, Intestines ([2]; 24 h pi): 0.48 ± 0.14 %IA/g | Biodistribution, Kidneys ([2]; 24 h pi): 4.15 ± 1.06 %IA/g | Biodistribution, Liver ([2]; 24 h pi): 1.07 ± 0.26 %IA/g | Biodistribution, Muscle ([2]; 24 h pi): 0.08 ± 0.01 %IA/g | Biodistribution, Pancreas ([2]; 24 h pi): 0.17 ± 0.04 %IA/g | Biodistribution, Spleen ([2]; 24 h pi): 0.43 ± 0.09 %IA/g | Biodistribution, Stomach ([2]; 24 h pi): 0.35 ± 0.21 %IA/g | Background clearance / excretion route ([2]; mouse, in vivo): predominantly cleared via the kidneys | Internalized to membrane-bound ratio (HEK293-CCK2i4svR cells): 4.1 | Internalized fraction (HEK293-CCK2i4svR cells; 1 h 37 °C, specific): 11.12 ± 0.79 % of total added activity | Cell uptake (internalized + membrane-bound) (HEK293-CCK2i4svR cells; 1 h 37 °C, specific, of total added activity): 13.81 ± 0.89%
